In assay [1] the target is T1, human GlyT1 (hGlyT1) (Homo sapiens, UniProt P48067).
T1 sequence (P48067 1-706): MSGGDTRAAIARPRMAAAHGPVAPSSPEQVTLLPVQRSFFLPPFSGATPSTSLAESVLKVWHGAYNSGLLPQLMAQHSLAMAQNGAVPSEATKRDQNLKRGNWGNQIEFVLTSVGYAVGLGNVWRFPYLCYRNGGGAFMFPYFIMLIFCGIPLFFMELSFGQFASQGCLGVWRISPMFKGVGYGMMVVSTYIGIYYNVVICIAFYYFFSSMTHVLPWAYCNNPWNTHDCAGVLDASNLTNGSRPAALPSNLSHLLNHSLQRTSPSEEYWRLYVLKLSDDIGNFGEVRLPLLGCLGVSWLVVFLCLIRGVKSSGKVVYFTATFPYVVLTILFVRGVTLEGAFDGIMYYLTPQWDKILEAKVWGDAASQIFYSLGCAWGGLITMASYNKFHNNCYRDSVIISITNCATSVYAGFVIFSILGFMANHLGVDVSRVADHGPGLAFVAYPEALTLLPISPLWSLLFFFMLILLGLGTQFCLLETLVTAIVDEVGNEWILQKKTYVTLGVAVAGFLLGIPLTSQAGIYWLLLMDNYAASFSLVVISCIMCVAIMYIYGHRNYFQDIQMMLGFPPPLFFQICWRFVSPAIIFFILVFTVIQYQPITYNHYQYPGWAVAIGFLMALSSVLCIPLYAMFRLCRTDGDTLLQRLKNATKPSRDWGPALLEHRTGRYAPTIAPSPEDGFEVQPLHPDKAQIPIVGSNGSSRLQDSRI
Put plainly: [3H]Org24598 membrane competition, filtration. In kind it is binding.

For assay [2], the target named is T1, human GlyT1 (hGlyT1). Put plainly: [3H]glycine uptake inhibition in Flp-in-CHO cells. In kind it is cell-based.
Assay [3] addresses T2, GlyT1^minimal (Homo sapiens, UniProt P48067).
T2 sequence (P48067 91-684): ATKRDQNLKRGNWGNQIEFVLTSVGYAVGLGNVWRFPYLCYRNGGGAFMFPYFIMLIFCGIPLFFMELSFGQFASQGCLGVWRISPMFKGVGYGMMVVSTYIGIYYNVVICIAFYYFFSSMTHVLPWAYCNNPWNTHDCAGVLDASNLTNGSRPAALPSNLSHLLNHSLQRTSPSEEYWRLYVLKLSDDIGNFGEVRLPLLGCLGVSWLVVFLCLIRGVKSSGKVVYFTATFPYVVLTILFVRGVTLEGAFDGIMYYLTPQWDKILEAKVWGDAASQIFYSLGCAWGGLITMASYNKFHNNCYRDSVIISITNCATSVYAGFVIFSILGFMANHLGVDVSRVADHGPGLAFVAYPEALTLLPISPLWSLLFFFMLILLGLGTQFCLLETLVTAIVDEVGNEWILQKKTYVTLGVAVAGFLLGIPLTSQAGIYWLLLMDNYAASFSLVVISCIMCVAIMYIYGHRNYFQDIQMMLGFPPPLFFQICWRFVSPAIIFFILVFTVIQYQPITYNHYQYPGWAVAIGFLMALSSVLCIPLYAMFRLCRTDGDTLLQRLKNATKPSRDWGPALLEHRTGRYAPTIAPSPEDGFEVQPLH
Put plainly: CPM thermofluor. In kind it is binding. Conditions: 10 uM Cmpd1; 0.73 uM protein; pH 7.5; LMNG. In general terms: DSF heats the sample and reads unfolding from a dye or from intrinsic fluorescence.

We go through one molecule from paper doi:10.1101/2020.12.20.110478v1 (biorxiv, 2020).

The structures appear in SMILES notation.

As a reminder, the IC50 is the point on the concentration scale where inhibition reaches its midpoint. The low end stands for higher potency, the high end for lower potency. On to `CS(=O)(=O)c1ccc(OCC(F)(F)C(F)(F)F)c(C(=O)N2Cc3ccc(OC4CCOCC4)cc3C2)c1` [Cmpd1], for which the IC50 is 12.5 nM in assay [1] and 26.4 nM in assay [2]. Further, in assay [3], the “increase in melting point” value stood at 30.5 °C.
